# Columns and labels:
# Assay in all cases: normalised response (% of control), CellTiter-Glo; higher = more viable cells (100 = DMSO, 0 = benzethonium chloride kill control)
# Conditions in all cases: incubation time: 72 h
# [1] = system: HCC1599
# In short: (§1)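 Normalised signals at single concentrations make up the values. They come from breast cancer cell lines seeded (20 µl suspension) into 384-well plates with compound at 5 concentrations in 10-fold steps over a compound-specific 10,000-fold range, incubated 72 h, and read for CellTox Green fluorescence then CellTiter-Glo luminescence. Each plate was normalised to 0.1 % DMSO (100) and a positive kill control (0).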
# [2] = system: BT-549
# In short: as §1
# [3] = system: CAL-51
# In short: as §1
# [4] = system: DU-4475
# In short: as §1
# [5] = system: HDQ-P1
# In short: as §1
# [6] = system: Hs578T
# In short: as §1
# [7] = system: MDA-MB-468
# In short: as §1
# [8] = system: MDA-MB-231
# In short: as §1
# [9] = system: MDA-MB-453
# In short: as §1
# [10] = system: CAL-85-1
# In short: as §1
# [11] = system: BT-474
# In short: as §1
# [12] = system: HCC1937
# In short: as §1
# [13] = system: MCF-10A
# In short: as §1
# [14] = system: HCC1143
# In short: as §1
# [15] = system: MFM-223
# In short: as §1
# [16] = system: MDA-MB-436
# In short: as §1
# [17] = system: CAL-120
# In short: as §1
# [18] = system: CAL-148
# In short: as §1
# [19] = system: SK-BR-3
# In short: as §1
SMILES,normalised response [1] [%],normalised response [2] [%],normalised response [3] [%],normalised response [4] [%],normalised response [5] [%],normalised response [6] [%],normalised response [7] [%],normalised response [8] [%],normalised response [9] [%],normalised response [10] [%],normalised response [11] [%],normalised response [12] [%],normalised response [13] [%],normalised response [14] [%],normalised response [15] [%],normalised response [16] [%],normalised response [17] [%],normalised response [18] [%],normalised response [19] [%]
Nc1nc(Cl)nc2c1ncn2[C@@H]1O[C@H](CO)[C@@H](O)[C@@H]1F [Clofarabine] (10 nM),95.2,98.3,72.2,102,96.8,105,98.9,93.5,91.3,105,102,95.8,105,102,101,95.1,101,107,
CCN(CC)CCOc1ccc(C(=C(Cl)c2ccccc2)c2ccccc2)cc1 [Clomifene] (10 nM),96.3,99.5,122,103,100,103,99.2,105,112,99.9,107,111,107,104,102,101,106,102,
C[C@@H]1C[C@H]2[C@@H]3CCC4=CC(=O)C=C[C@]4(C)[C@@]3(F)[C@@H](O)C[C@]2(C)[C@@]1(O)C(=O)CO [Dexamethasone] (10 nM),100,97.4,113,101,89.8,104,97.9,137,95.2,116,130,97.5,94,103,95.2,102,83.2,100,
CCc1cnn2c(NCc3ccc[n+]([O-])c3)cc(N3CCCC[C@H]3CCO)nc12 [Dinaciclib] (0.1 nM),103,109,82.8,102,104,99,93.8,98.5,99,98.4,97.1,102,106,102,100,99.3,99.6,110,103
CCc1cnn2c(NCc3ccc[n+]([O-])c3)cc(N3CCCC[C@H]3CCO)nc12 [Dinaciclib] (1 nM),101,92.5,82.1,97.8,104,109,97.8,98.3,103,101,95.7,98.5,102,107,103,98.5,99.6,115,
CC(C)NC[C@@H](C(=O)N1CCN(c2ncnc3c2[C@H](C)C[C@H]3O)CC1)c1ccc(Cl)cc1 [GDC-0068] (10 nM),90.8,98.2,108,105,96.1,100,95.7,110,91.1,95.6,96.8,97,103,103,98.8,94.4,99.8,96.8,
COc1cc2c(cc1-c1c(C)noc1C)ncc1[nH]c(=O)n([C@H](C)c3ccccn3)c12 [I-BET151] (10 nM),100,91.9,94.3,103,97.9,99,99.2,105,91.7,99.4,98,98.5,108,107,103,101,100,111,
COc1cc2c(N3CCN(C(=O)Nc4ccc(OC(C)C)cc4)CC3)ncnc2cc1OCCCN1CCCCC1 [Tandutinib] (1 nM),90.9,94.9,118,102,103,98.6,102,101,95.1,107,99.9,99,99.8,103,103,107,104,101,
C[C@@H](C(=O)O)c1ccc(-c2ccccc2)c(F)c1 [Tarenflurbil] (10 nM),106,94.5,123,97,98,104,86.7,94.6,94.9,95.3,90.8,101,97.5,101,93.7,105,96.7,92.2,
Cn1nnc2c(C(N)=O)ncn2c1=O [Temozolomide] (10 nM),88.7,102,110,99.4,96.7,100,97,99.5,98,103,97,95.8,92.1,98.5,97.5,101,97.9,102,
